In patent US4585755A, “Cyclic and bridged cyclic somatostatin analogs useful as local anti-inflammatory agents” (Merck & Co., Inc., priority 1985, dated 1986):
Residues, ends and D or L forms follow the SMILES beside them.

Experiments:
[1] = system: growth hormone, insulin and glucogen secretion; assay: Potency relative to somatostatin (SRIF), based on inhibition of hormone secretion; details: somatostatin (SRIF) potency assigned a value of 1, based upon inhibition of growth hormone
Description: Following the same procedure as described above for Assay 1, additional compounds were tested for local; i.e., topical, anti-inflammatory activity. […] In Table III, the potency of each compound tested relative to that of somatostatin is also shown, the somatostatin (SRIF) potency being assigned a value of 1 and based upon its inhibition of growth hormone, insulin and glucogen secretion.

[2] = system: cellular proliferation (granuloma); assay: Assay 1: pellet granuloma assay, compound applied locally to implanted pellets; type: in vivo, rats (Charles River-CD); details: for Body Wt. Change / Net weight of Pellets: local on pellet, male rats, 7 days; for Net weight of Pellets: ± S.E. of mean, control 39 ± 2.7
Description: The assay method employed to test the Formula I, II and III compounds as local anti-inflammatory agents is a modification of the method described by S. L. Steelman, et al. [Steroids, 1, 163 (1963)] as follows:
(§1) Male rats (Charles River-CD) of about 150-160 grams in weight were subcutaneously implanted in the abdominal area with two pellets each. Five animals were used per group. The pellets used were preweighed and all used in a given assay were ±1 mg from one another. The compounds were dissolved in absolute ethanol and the indicated dose applied to each pellet in 0.2 ml. The alcohol was removed in vacuo overnight. Just prior to implantation, each pellet was moistened with 0.2 ml of 0.9% saline containing 1 mg each of penicillin and streptomycin. After seven days, the pellets were dissected out together with adhering granulomatous tissue. After drying in a vacuum oven overnight at 60°-65° C., the pellets were weighed. The difference in weight between the original pellet weight and the implanted pellet weight was used as a measure of cellular proliferation (granuloma). The lower the net weight, the more anti-inflammatory activity.
The results obtained following the Assay Method described above are shown below in Table I wherein hydrocortisone was used as a positive control.

[3] = system: cellular proliferation (granuloma); assay: Assay 2: pellet granuloma assay, compounds administered subcutaneously as saline injections; type: in vivo, rats (Charles River-CD); details: for Avg. Granuloma wt. / Avg. Adrenal wt. / Avg. Thymus wt. / Avg. body wt change: rats, 7 days, ± S.E. of mean; for Avg. Granuloma wt.: control 28 ± 3; for Avg. Adrenal wt.: control 44 ± 1; for Avg. Thymus wt.: control 552 ± 45; for Avg. body wt change: control +35 ± 2
Description: as §1
Following the procedure described above for Assay 1, additional tests were conducted except that the compounds were administered subcutaneously as saline injections. The tests were carried out on six animals per group and the results obtained are shown below in Table II.

[4] = daily dose 200 mcg subcutaneous

CC(C)[C@@H]1NC(=O)[C@H](CCCCN)NC(=O)[C@@H](Cc2c[nH]c3ccccc23)NC(=O)[C@H](Cc2ccc(O)cc2)NC(=O)[C@H](C)N(C)C(=O)[C@H](Cc2c[nH]c3ccccc23)NC1=O [9/I, Cyclo-(N-Me-Ala-Tyr-D-Trp-Lys-Val-Trp)] (HELM PEPTIDE1{K.V.W.[meA].Y.[dW]}$PEPTIDE1,PEPTIDE1,1:R1-6:R2$$$V2.0)
Potency Relative to Samatostatin (SRIF) [1]: 20-35

CC(C)[C@@H]1NC(=O)[C@H](CCCCN)NC(=O)[C@H](Cc2c[nH]c3ccccc23)NC(=O)[C@H](Cc2ccc(O)cc2)NC(=O)[C@H](C)N(C)C(=O)[C@H](Cc2ccccc2)NC1=O [10/I, Cyclo-(N-Me-Ala-Tyr-L-Trp-Lys-Val-Phe)]
Potency Relative to Samatostatin (SRIF) [1]: 50

C[C@@H]1NC(=O)[C@H](CO)NC(=O)[C@H](CCCCN)NC(=O)[C@@H](Cc2c[nH]c3ccccc23)NC(=O)[C@H](Cc2c[nH]cn2)NC(=O)[C@H](Cc2ccccc2)N(C)C1=O [11/I, Cyclo-(Ser-Ala-N-Me-Phe-His-D-Trp-Lys)] (HELM PEPTIDE1{A.[meF].H.[dW].K.S}$PEPTIDE1,PEPTIDE1,1:R1-6:R2$$$V2.0)
Potency Relative to Samatostatin (SRIF) [1]: 200

C[C@@H](O)[C@@H]1NC(=O)[C@H](CCCCN)NC(=O)[C@@H](Cc2c[nH]c3ccccc23)NC(=O)[C@H](Cc2ccccc2)NC(=O)[C@@H]2CCCN2C(=O)[C@H](Cc2ccccc2)NC1=O [13/II, Cyclo-(Pro-Phe-D-Trp-Lys-Thr-Phe)] (HELM PEPTIDE1{P.F.[dW].K.T.F}$PEPTIDE1,PEPTIDE1,1:R1-6:R2$$$V2.0)
Potency Relative to Samatostatin (SRIF) [1]: 6

CC(C)[C@@H]1NC(=O)[C@H](CCCCN)NC(=O)[C@@H](Cc2c[nH]c3ccccc23)NC(=O)[C@H](Cc2ccc(O)cc2)NC(=O)[C@H](C)N(C)C(=O)[C@H](Cc2ccccc2)NC1=O [Compound 8 of Formula I, Cyclo-(N-Me-Ala-Tyr-D-Trp-Lys-Val-Phe)]
Body Wt. Change ([2]; 10 mcg./pellet): +43 gm | Net weight of Pellets ([2]; 10 mcg./pellet): 39 ± 2.9 mg | Body Wt. Change ([2]; 100 mcg./pellet): +40 gm | Net weight of Pellets ([2]; 100 mcg./pellet): 30 ± 2.4 mg | anti-inflammatory activity (in words) ([2]; administered locally, i.e., topically): clearly exhibits anti-inflammatory activity | local anti-inflammatory activity (in words) ([2]; doses of 100-200 micrograms per pellet): significant activity | effect on adrenal weight (in words) ([3]; administered subcutaneously): slight decrease in the adrenal weight | anti-inflammatory activity (in words) ([3]; administered subcutaneously at a total dose of 1.4 mg (0.2 mg×7)): no anti-inflammatory activity | anti-inflammatory activity (in words) ([3]; administered systematically, i.e., subcutaneously): no anti-inflammatory activity | Avg. Granuloma wt. ([3]; daily dose 50 mcg subcutaneous): 27 ± 3 mg | Avg. Adrenal wt. ([3]; daily dose 50 mcg subcutaneous): 43 ± 2 mg | Avg. Thymus wt. ([3]; daily dose 50 mcg subcutaneous): 576 ± 14 mg | Avg. body wt change ([3]; daily dose 50 mcg subcutaneous): +38 ± 3 gm | Avg. Granuloma wt. [3, 4]: 29 ± 2 mg | Avg. Adrenal wt. [3, 4]: 36 ± 2 mg | Avg. Thymus wt. [3, 4]: 571 ± 26 mg | Avg. body wt change [3, 4]: +35 ± 2 gm | Potency Relative to Samatostatin (SRIF) [1]: 50-100

C[C@]12CCC(=O)C=C1CC[C@@H]1[C@@H]2[C@@H](O)C[C@@]2(C)[C@H]1CC[C@]2(O)C(=O)CO [Hydrocortisone, reference compound]
Body Wt. Change ([2]; 200 mcg./pellet): +44 gm | Net weight of Pellets ([2]; 200 mcg./pellet): 34 ± 2.5 mg | Body Wt. Change ([2]; 1000 mcg./pellet): +41 gm | Net weight of Pellets ([2]; 1000 mcg./pellet): 29 ± 2.1 mg | activity of positive control (in words) ([3]; administered subcutaneously): typical activity | Avg. Granuloma wt. ([3]; daily dose 1.0 mg subcutaneous): 22 ± 1 mg | Avg. Adrenal wt. ([3]; daily dose 1.0 mg subcutaneous): 36 ± 3 mg | Avg. Thymus wt. ([3]; daily dose 1.0 mg subcutaneous): 201 ± 20 mg | Avg. body wt change ([3]; daily dose 1.0 mg subcutaneous): +22 ± 3 gm | Avg. Granuloma wt. ([3]; daily dose 4.0 mg subcutaneous): 19 ± 1 mg | Avg. Adrenal wt. ([3]; daily dose 4.0 mg subcutaneous): 23 ± 1 mg | Avg. Thymus wt. ([3]; daily dose 4.0 mg subcutaneous): 41 ± 3 mg | Avg. body wt change ([3]; daily dose 4.0 mg subcutaneous): -17 ± 2 gm
